Literature values, collected in paper PMC8198792, “Prediction of Anticancer Peptides with High Efficacy and Low Toxicity by Hybrid Model Based on 3D Structure of Peptides” (International Journal of Molecular Sciences, 2021).
Like-named read-outs stand apart in the source and are kept apart here.

Tests used:
[1] = tested on: cancer cell lines; design: method as in 6 sources, ref CancerPPD [45] and SATPdb ||| ref CancerPPD/SATPdb ||| ref CancerPPD, SATPdb, Swissprot (PDB) ||| ref CancerPPD/SATPdb/Swissprot(PDB) ||| ref CancerPPD / SATPdb ||| ...; conditions: cited from earlier work
Source text: Supplement ijms-22-05630-s001.zip/ACPs(seguence).xlsx, sheet "D1" | column: Activity || Supplement ijms-22-05630-s001.zip/ACPs(seguence).xlsx, sheet "D2" | column: Activity || Supplement ijms-22-05630-s001.zip/ACPs(seguence).xlsx, sheet "D3" | column: Activity || (+ 2 further places)

[2] = tested on: erythrocytes; conditions: cited from earlier work
Source text: Supplement ijms-22-05630-s001.zip/Hemloytic Peptides(seguence).xlsx, sheet "HD1" | column: Activity || Supplement ijms-22-05630-s001.zip/Hemloytic Peptides(seguence).xlsx, sheet "HD2" | column: Activity || Supplement ijms-22-05630-s001.zip/Hemloytic Peptides(seguence).xlsx, sheet "HD3" | column: Activity

[3] = ACPs dataset D3 (sheet "D3"), label 1 = ACP, 0 = non-ACP, ref CancerPPD/SATPdb
[4] = ACPs dataset D4 (sheet "D4"), label 1 = ACP, 0 = non-ACP, ref CancerPPD / SATPdb
[5] = ACPs dataset D5, sheet "D5", label 1 = ACP, 0 = non-ACP, ref CancerPPD [45] and SATPdb
[6] = ACPs dataset D1, 1 = ACP (positive), 0 = non-ACP (negative), label taken from databases, ref CancerPPD [45] and SATPdb
[7] = ACPs dataset D4 (sheet "D4"), label 1 = ACP (CancerPPD ID), 0 = non-ACP (non-anticancer AMP, SATPdb ID), ref CancerPPD [45] and SATPdb
[8] = hemolytic peptides dataset HD3, 1 = hemolytic (positive set), 0 = non-hemolytic (negative set), labels taken from databases, ref Hemolytik/SATPdb
[9] = natural hemolytic peptide dataset HD1, label collected from databases, ref Hemolytik [49], SATPdb [34]
[10] = Hemolytic peptides dataset HD2, label 1 = hemolytic, 0 = non-hemolytic, ref Hemolytik/SATPdb
[11] = ACPs dataset D1, label 1 = ACP, 0 = non-ACP (non-anticancer AMPs from SATPdb), ref CancerPPD/SATPdb
[12] = ACPs dataset D3 (supplement sheet "D3"), 1 = ACP, 0 = non-ACP, ref CancerPPD [45] and SATPdb

Substance: DVNDLKNLCAKTHNLLPMCAMF [satpdb13885]
- Activity [1, 3]: 0
- Activity [1, 4]: 0
- Activity [1, 5]: 0
- Activity [2]: 0

Substance: AKKVFKRLGIGAVLWVLTWG [satpdb10183]
- Activity [1, 6]: 0
- Activity [1, 7]: 0
- Activity [2, 8]: 1
- Activity (dataset HD1, hemolytic 1 / non-hemolytic 0) [2, 9]: 1

Substance: LKWLLKWLL [satpdb12315]
- Activity [1, 3]: 0
- Activity [1, 4]: 0
- Activity [1, 5]: 0
- Activity [2, 10]: 1
- Activity [2, 8]: 1

Substance: VKLGVyPLKVKLyP [satpdb12769]
- Activity [1, 3]: 0
- Activity [1, 4]: 0
- Activity [1, 5]: 0
- Activity [2]: 1

Substance: CIAKGNGCQPSGVQGNCCSGHCHKEPGWVAGYCK [satpdb13088]
- Activity [1, 3]: 0
- Activity [1, 4]: 0
- Activity [1, 5]: 0
- Activity [2, 10]: 0
- Activity [2, 8]: 0

Substance: KWAKKWKWFAKAAWKWYKK [satpdb12565]
- Activity [1, 3]: 0
- Activity [1, 4]: 0
- Activity [1, 5]: 0
- Activity [2, 10]: 1
- Activity [2, 8]: 1

Substance: FQWQRNIRKVR [satpdb14534]
- Activity [1, 3]: 0
- Activity [1, 4]: 0
- Activity [1, 5]: 0
- Activity [2]: 0

Substance: GIGKFLHTLKTFGKKWVGEIMNS [satpdb13533]
- Activity [1, 3]: 0
- Activity [1, 4]: 0
- Activity [1, 5]: 0
- Activity [2]: 1

Substance: FLAGLIGGLAKMLGK [satpdb10461]
- Activity [1, 6]: 0
- Activity [1, 7]: 0
- Activity [2]: 1
- Activity (dataset HD1, hemolytic 1 / non-hemolytic 0) [2]: 1

Substance: CGESCVFIPCISTLLGCSCKNKVCYRNGVIP [satpdb11124]
- Activity [1, 11]: 0
- Activity [1, 7]: 0
- Activity [2, 8]: 1
- Activity (dataset HD1, hemolytic 1 / non-hemolytic 0) [2, 9]: 1

Substance: FVPWFSKFLGRIL [satpdb13384]
- Activity [1, 3]: 0
- Activity [1, 4]: 0
- Activity [1, 5]: 0
- Activity [2, 10]: 1
- Activity [2, 8]: 1

Substance: GRFKRFRKKFKKLFKKLSPVIPLLHL [satpdb13682]
- Activity [1, 3]: 0
- Activity [1, 4]: 0
- Activity [1, 5]: 0
- Activity [2]: 1

Substance: GFLSILKKVLGKVMAHMK [satpdb11125]
- Activity [1, 12]: 0
- Activity [1, 4]: 0
- Activity [1, 5]: 0
- Activity [2, 10]: 1
- Activity [2, 8]: 1

Substance: ILPFKFPFPFRR [satpdb12286]
- Activity [1, 3]: 0
- Activity [1, 4]: 0
- Activity [1, 5]: 0
- Activity [2]: 1

Substance: VKlKVyPLKVKLyP [satpdb13308]
- Activity [1, 3]: 0
- Activity [1, 4]: 0
- Activity [1, 5]: 0
- Activity [2]: 1

Substance: GLGSLLGKAFKIGLKTVGKMMGGAPREQ [satpdb12448]
- Activity [1, 11]: 0
- Activity [1, 7]: 0
- Activity [2]: 1
- Activity (dataset HD1, hemolytic 1 / non-hemolytic 0) [2]: 1

Substance: FLPAIAGILSQLF [satpdb10431]
- Activity [1, 12]: 0
- Activity [1, 4]: 0
- Activity [1, 5]: 0
- Activity [2]: 1

Substance: TSRCIFYRRKKCS [satpdb13333]
- Activity [1, 11]: 0
- Activity [1, 4]: 0
- Activity [2]: 1
- Activity (dataset HD1, hemolytic 1 / non-hemolytic 0) [2]: 1

Substance: GLWDTIKQAGKKFFLNVLDKIRCKVAGGCRT [satpdb11099]
- Activity [1, 6]: 0
- Activity [1, 7]: 0
- Activity [2, 8]: 1
- Activity (dataset HD1, hemolytic 1 / non-hemolytic 0) [2, 9]: 1

Substance: LLIILRRRWRKQARARSK [satpdb13104]
- Activity [1, 3]: 0
- Activity [1, 4]: 0
- Activity [1, 5]: 0
- Activity [2]: 1

Substance: RKLRRLKRKIAHKVKKY [satpdb10022]
- Activity [1, 12]: 0
- Activity [1, 4]: 0
- Activity [1, 5]: 0
- Activity [2]: 0

Substance: KWKKLLKKPLKLLKKLLK [satpdb12290]
- Activity [1, 3]: 0
- Activity [1, 4]: 0
- Activity [1, 5]: 0
- Activity [2]: 1

Substance: FRPKVTITIQGSARF [satpdb11995]
- Activity [1, 3]: 0
- Activity [1, 4]: 0
- Activity [1, 5]: 0
- Activity [2]: 0

Substance: KKKKKKAAAAFWAAAAF [satpdb11398]
- Activity [1, 12]: 0
- Activity [1, 4]: 0
- Activity [1, 5]: 0
- Activity [2]: 0

Substance: KKVVFKVKFKK [satpdb13401]
- Activity [1, 3]: 0
- Activity [1, 4]: 0
- Activity [1, 5]: 0
- Activity [2]: 0

Substance: ILAWKWAWWAWRR [satpdb11388]
- Activity [1, 12]: 0
- Activity [1, 4]: 0
- Activity [1, 5]: 0
- Activity [2]: 1

Substance: FSPQMLQDIIEKKTKIL [satpdb13152]
- Activity [1, 11]: 0
- Activity [1, 4]: 0
- Activity [2]: 0
- Activity (dataset HD1, hemolytic 1 / non-hemolytic 0) [2]: 0

Substance: GLVTSLIKGAGKLLGGLFGSVTGGQS [satpdb13110]
- Activity [1, 11]: 0
- Activity [1, 4]: 0
- Activity [2]: 1
- Activity (dataset HD1, hemolytic 1 / non-hemolytic 0) [2]: 1

Substance: LLIILRRRWRRQARARSR [satpdb11798]
- Activity [1, 12]: 0
- Activity [1, 4]: 0
- Activity [1, 5]: 0
- Activity [2]: 1

Substance: KWFRVYRGIYRRR [satpdb13764]
- Activity [1, 3]: 0
- Activity [1, 4]: 0
- Activity [1, 5]: 0
- Activity [2]: 0

Substance: kklfkkILKYL [satpdb10342]
- Activity [1, 12]: 0
- Activity [1, 4]: 0
- Activity [1, 5]: 0
- Activity [2, 10]: 0
- Activity [2, 8]: 0

Substance: ILPWKWPKLPWRR [satpdb13392]
- Activity [1, 3]: 0
- Activity [1, 4]: 0
- Activity [1, 5]: 0
- Activity [2]: 0

Substance: ILPFKFPFFPFRR [satpdb11100]
- Activity [1, 12]: 0
- Activity [1, 4]: 0
- Activity [1, 5]: 0
- Activity [2, 10]: 1
- Activity [2, 8]: 1

Substance: KEKLKLKCKAPKCYNDKLACT [satpdb13157]
- Activity [1, 11]: 0
- Activity [1, 4]: 0
- Activity [2]: 0
- Activity (dataset HD1, hemolytic 1 / non-hemolytic 0) [2]: 0

Substance: VKLKVyPLKvKLyP [satpdb12258]
- Activity [1, 3]: 0
- Activity [1, 4]: 0
- Activity [1, 5]: 0
- Activity [2, 10]: 1
- Activity [2, 8]: 1

Substance: GIGAVLK*VLTTGLpALISWIK*RK*RQQ [satpdb13686]
- Activity [1, 3]: 0
- Activity [1, 4]: 0
- Activity [1, 5]: 0
- Activity [2, 10]: 1
- Activity [2, 8]: 1

Substance: ILPLKLPLLPWRR [satpdb11013]
- Activity [1, 12]: 0
- Activity [1, 4]: 0
- Activity [1, 5]: 0
- Activity [2, 10]: 0
- Activity [2, 8]: 0

Substance: GWLDVAKKIGKAAFNVAKNFLFNKAVNFAAKGIKKAVDLWG [satpdb12864]
- Activity [1, 11]: 0
- Activity [1, 4]: 0
- Activity [2, 8]: 1
- Activity (dataset HD1, hemolytic 1 / non-hemolytic 0) [2, 9]: 1

Substance: KNLRRIIRKGIHIIKKYF [satpdb11799]
- Activity [1, 11]: 0
- Activity [1, 7]: 0
- Activity [2]: 1
- Activity (dataset HD1, hemolytic 1 / non-hemolytic 0) [2]: 1

Substance: LKKLLKWLKKL [satpdb13099]
- Activity [1, 3]: 0
- Activity [1, 4]: 0
- Activity [1, 5]: 0
- Activity [2]: 1

Substance: GFLSSLKKSLPKSXAHSK [satpdb13158]
- Activity [1, 3]: 0
- Activity [1, 4]: 0
- Activity [1, 5]: 0
- Activity [2, 10]: 1
- Activity [2, 8]: 1

Substance: FLSLALAALPKLFCLIFKKC [satpdb10291]
- Activity [1, 6]: 0
- Activity [1, 7]: 0
- Activity [2, 8]: 1
- Activity (dataset HD1, hemolytic 1 / non-hemolytic 0) [2, 9]: 1

Substance: VNSKKISPKSIKVSK [satpdb10612]
- Activity [1, 12]: 0
- Activity [1, 4]: 0
- Activity [1, 5]: 0
- Activity [2, 10]: 1
- Activity [2, 8]: 1

Substance: KfKLKQ [satpdb10387]
- Activity [1, 12]: 0
- Activity [1, 4]: 0
- Activity [1, 5]: 0
- Activity [2, 10]: 0
- Activity [2, 8]: 0

Substance: VSWKKSLGKIIKVVK [satpdb13183]
- Activity [1, 3]: 0
- Activity [1, 4]: 0
- Activity [1, 5]: 0
- Activity [2, 10]: 1
- Activity [2, 8]: 1

Substance: GLLSGILGAGKQKVCGLSGLC [satpdb12339]
- Activity [1, 11]: 0
- Activity [1, 7]: 0
- Activity [2]: 1
- Activity (dataset HD1, hemolytic 1 / non-hemolytic 0) [2]: 1
